Laboratory results taken from patent EP4722212A1, “NOVEL COMPOUND FOR INHIBITING PROTEIN KINASES AND PHARMACEUTICAL COMPOSITION COMPRISING SAME” (Magicbullettherapeutics Co., Ltd., priority 2023, dated 2024).
Read-outs that look alike come from different tables or passages of the source.

Legend:
Test in all cases: Kinase panel
Format in all cases: biochemical
[1] = target: GRK2 (Homo sapiens, UniProt P25098); conditions: GRK2, 1 µM; read-out: residual enzyme activity
In short: (§1)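 Compounds were applied once, at 1 µM, to each kinase of a broad biochemical panel, and remaining enzyme activity was calculated. A kinase counted as inhibited if that remaining activity fell to 40% or below.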

[2] = target: ALK1/ACVRL1 (Homo sapiens, UniProt P37023); conditions: ALK1/ACVRL1, 1 µM; read-out: residual enzyme activity
In short: as §1

[3] = target: MSK1/RPS6KA5 (Homo sapiens, UniProt O75582); conditions: MSK1/RPS6KA5, 1 µM; read-out: residual enzyme activity
In short: as §1

[4] = target: HCK (Homo sapiens, UniProt P08631); conditions: read-out: residual enzyme activity
In short: as §1

[5] = target: CDK1/CYCLIN E (Homo sapiens, UniProt P06493); conditions: read-out: residual enzyme activity
In short: as §1

[6] = target: MEKK1 (Homo sapiens, UniProt Q13233); conditions: MEKK1, 1 µM; read-out: residual enzyme activity
In short: as §1

[7] = target: LRRK2 (Homo sapiens, UniProt Q5S007); conditions: LRRK2, 1 µM; read-out: residual enzyme activity
In short: as §1

[8] = target: MEK3 (Homo sapiens, UniProt P46734); conditions: MEK3, 1 µM; read-out: residual enzyme activity
In short: as §1

[9] = target: ERN1/IRE1 (Homo sapiens, UniProt O75460); conditions: ERN1/IRE1, 1 µM; read-out: residual enzyme activity
In short: as §1

[10] = target: MNK2 (Homo sapiens, UniProt Q9HBH9); conditions: MNK2, 1 µM; read-out: residual enzyme activity
In short: as §1

[11] = target: RIPK5 (Homo sapiens, UniProt Q6XUX3); conditions: RIPK5, 1 µM; read-out: residual enzyme activity
In short: as §1

[12] = target: CAMK4 (Homo sapiens, UniProt Q16566); conditions: CAMK4, 1 µM; read-out: residual enzyme activity
In short: as §1

[13] = target: SIK1 (Homo sapiens, UniProt P57059); conditions: SIK1, 1 µM; read-out: residual enzyme activity
In short: as §1

[14] = target: PKN1/PRK1 (Homo sapiens, UniProt Q16512); conditions: PKN1/PRK1, 1 µM; read-out: residual enzyme activity
In short: as §1

[15] = target: MAPKAPK3 (Homo sapiens, UniProt Q16644); conditions: MAPKAPK3, 1 µM; read-out: residual enzyme activity
In short: as §1

[16] = target: JNK1 (Homo sapiens, UniProt P45983); conditions: JNK1, 1 µM; read-out: residual enzyme activity
In short: as §1

[17] = target: PKACB (Homo sapiens, UniProt P22694); conditions: read-out: residual enzyme activity
In short: as §1

[18] = target: GRK7 (Homo sapiens, UniProt Q8WTQ7); conditions: GRK7, 1 µM; read-out: residual enzyme activity
In short: as §1

[19] = target: GRK3 (Homo sapiens, UniProt P35626); conditions: GRK3, 1 µM; read-out: residual enzyme activity
In short: as §1

[20] = target: CDK9/CYCLIN T2 (Homo sapiens, UniProt P50750); conditions: CDK9/cyclin T2, 1 µM; read-out: residual enzyme activity
In short: as §1

[21] = target: TAOK3/JIK (Homo sapiens, UniProt Q9H2K8); conditions: read-out: residual enzyme activity
In short: as §1

[22] = target: CDK6/CYCLIN D3 (Homo sapiens, UniProt Q00534); conditions: CDK6/cyclin D3, 1 µM; read-out: residual enzyme activity
In short: as §1

[23] = target: DYRK4 (Homo sapiens, UniProt Q9NR20); conditions: DYRK4, 1 µM; read-out: residual enzyme activity
In short: as §1

[24] = target: GRK5 (Homo sapiens, UniProt P34947); conditions: GRK5, 1 µM; read-out: residual enzyme activity
In short: as §1

[25] = target: YES/YES1 (Homo sapiens, UniProt P07947); conditions: YES/YES1, 1 µM; read-out: residual enzyme activity
In short: as §1

[26] = target: C-SRC (Homo sapiens, UniProt P12931); conditions: read-out: residual enzyme activity
In short: as §1

[27] = target: CKIG3 (Homo sapiens, UniProt Q9Y6M4); conditions: CKIG3, 1 µM; read-out: residual enzyme activity
In short: as §1

[28] = target: CDK2/CYCLIN O (Homo sapiens, UniProt P24941); conditions: read-out: residual enzyme activity
In short: as §1

[29] = target: ASK1/MAP3K5 (Homo sapiens, UniProt Q99683); conditions: ASK1/MAP3K5, 1 µM; read-out: residual enzyme activity
In short: as §1

[30] = target: ROS/ROS1 (Homo sapiens, UniProt P08922); conditions: ROS/ROS1, 1 µM; read-out: residual enzyme activity
In short: as §1

[31] = target: IRAK4 (Homo sapiens, UniProt Q9NWZ3); conditions: IRAK4, 1 µM; read-out: residual enzyme activity
In short: as §1

[32] = target: CLK3 (Homo sapiens, UniProt P49761); conditions: CLK3, 1 µM; read-out: residual enzyme activity
In short: as §1

ASK1/MAP3K5, sequence (Q99683 whole entry): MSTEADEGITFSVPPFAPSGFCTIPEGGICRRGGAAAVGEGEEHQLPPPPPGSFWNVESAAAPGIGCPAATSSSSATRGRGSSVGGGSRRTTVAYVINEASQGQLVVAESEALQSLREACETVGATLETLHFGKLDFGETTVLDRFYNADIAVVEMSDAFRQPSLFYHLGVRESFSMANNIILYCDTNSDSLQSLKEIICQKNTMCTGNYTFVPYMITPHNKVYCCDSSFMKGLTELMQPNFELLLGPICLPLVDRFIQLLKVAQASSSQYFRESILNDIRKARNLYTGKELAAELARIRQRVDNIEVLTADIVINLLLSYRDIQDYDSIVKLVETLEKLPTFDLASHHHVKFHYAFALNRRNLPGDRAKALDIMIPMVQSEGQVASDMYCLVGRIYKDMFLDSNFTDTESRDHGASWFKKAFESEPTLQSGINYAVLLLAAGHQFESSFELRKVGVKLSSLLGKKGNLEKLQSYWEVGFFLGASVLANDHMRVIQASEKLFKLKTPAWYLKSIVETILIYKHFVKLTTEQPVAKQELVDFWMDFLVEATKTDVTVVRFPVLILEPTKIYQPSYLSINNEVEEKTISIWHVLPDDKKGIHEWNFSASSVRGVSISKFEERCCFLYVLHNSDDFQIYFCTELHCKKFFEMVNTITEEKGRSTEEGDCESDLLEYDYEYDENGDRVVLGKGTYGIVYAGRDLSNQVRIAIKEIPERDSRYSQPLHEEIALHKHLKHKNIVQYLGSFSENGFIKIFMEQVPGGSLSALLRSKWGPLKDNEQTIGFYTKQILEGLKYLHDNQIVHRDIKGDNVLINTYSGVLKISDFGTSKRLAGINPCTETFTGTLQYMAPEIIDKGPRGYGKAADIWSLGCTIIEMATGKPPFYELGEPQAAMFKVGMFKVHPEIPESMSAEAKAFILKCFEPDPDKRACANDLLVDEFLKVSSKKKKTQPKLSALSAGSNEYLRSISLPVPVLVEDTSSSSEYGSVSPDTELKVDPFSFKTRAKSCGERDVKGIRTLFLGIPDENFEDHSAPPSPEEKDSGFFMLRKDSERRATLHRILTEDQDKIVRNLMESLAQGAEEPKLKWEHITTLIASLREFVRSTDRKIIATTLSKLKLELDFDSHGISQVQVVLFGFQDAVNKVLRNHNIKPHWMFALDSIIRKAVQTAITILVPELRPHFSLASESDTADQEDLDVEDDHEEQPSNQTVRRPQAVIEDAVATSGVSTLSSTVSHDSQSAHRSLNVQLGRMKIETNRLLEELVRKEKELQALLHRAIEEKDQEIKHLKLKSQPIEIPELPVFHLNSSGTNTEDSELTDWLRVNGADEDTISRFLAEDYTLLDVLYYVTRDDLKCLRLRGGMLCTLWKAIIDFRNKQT
LRRK2, sequence (Q5S007 whole entry, species assumed): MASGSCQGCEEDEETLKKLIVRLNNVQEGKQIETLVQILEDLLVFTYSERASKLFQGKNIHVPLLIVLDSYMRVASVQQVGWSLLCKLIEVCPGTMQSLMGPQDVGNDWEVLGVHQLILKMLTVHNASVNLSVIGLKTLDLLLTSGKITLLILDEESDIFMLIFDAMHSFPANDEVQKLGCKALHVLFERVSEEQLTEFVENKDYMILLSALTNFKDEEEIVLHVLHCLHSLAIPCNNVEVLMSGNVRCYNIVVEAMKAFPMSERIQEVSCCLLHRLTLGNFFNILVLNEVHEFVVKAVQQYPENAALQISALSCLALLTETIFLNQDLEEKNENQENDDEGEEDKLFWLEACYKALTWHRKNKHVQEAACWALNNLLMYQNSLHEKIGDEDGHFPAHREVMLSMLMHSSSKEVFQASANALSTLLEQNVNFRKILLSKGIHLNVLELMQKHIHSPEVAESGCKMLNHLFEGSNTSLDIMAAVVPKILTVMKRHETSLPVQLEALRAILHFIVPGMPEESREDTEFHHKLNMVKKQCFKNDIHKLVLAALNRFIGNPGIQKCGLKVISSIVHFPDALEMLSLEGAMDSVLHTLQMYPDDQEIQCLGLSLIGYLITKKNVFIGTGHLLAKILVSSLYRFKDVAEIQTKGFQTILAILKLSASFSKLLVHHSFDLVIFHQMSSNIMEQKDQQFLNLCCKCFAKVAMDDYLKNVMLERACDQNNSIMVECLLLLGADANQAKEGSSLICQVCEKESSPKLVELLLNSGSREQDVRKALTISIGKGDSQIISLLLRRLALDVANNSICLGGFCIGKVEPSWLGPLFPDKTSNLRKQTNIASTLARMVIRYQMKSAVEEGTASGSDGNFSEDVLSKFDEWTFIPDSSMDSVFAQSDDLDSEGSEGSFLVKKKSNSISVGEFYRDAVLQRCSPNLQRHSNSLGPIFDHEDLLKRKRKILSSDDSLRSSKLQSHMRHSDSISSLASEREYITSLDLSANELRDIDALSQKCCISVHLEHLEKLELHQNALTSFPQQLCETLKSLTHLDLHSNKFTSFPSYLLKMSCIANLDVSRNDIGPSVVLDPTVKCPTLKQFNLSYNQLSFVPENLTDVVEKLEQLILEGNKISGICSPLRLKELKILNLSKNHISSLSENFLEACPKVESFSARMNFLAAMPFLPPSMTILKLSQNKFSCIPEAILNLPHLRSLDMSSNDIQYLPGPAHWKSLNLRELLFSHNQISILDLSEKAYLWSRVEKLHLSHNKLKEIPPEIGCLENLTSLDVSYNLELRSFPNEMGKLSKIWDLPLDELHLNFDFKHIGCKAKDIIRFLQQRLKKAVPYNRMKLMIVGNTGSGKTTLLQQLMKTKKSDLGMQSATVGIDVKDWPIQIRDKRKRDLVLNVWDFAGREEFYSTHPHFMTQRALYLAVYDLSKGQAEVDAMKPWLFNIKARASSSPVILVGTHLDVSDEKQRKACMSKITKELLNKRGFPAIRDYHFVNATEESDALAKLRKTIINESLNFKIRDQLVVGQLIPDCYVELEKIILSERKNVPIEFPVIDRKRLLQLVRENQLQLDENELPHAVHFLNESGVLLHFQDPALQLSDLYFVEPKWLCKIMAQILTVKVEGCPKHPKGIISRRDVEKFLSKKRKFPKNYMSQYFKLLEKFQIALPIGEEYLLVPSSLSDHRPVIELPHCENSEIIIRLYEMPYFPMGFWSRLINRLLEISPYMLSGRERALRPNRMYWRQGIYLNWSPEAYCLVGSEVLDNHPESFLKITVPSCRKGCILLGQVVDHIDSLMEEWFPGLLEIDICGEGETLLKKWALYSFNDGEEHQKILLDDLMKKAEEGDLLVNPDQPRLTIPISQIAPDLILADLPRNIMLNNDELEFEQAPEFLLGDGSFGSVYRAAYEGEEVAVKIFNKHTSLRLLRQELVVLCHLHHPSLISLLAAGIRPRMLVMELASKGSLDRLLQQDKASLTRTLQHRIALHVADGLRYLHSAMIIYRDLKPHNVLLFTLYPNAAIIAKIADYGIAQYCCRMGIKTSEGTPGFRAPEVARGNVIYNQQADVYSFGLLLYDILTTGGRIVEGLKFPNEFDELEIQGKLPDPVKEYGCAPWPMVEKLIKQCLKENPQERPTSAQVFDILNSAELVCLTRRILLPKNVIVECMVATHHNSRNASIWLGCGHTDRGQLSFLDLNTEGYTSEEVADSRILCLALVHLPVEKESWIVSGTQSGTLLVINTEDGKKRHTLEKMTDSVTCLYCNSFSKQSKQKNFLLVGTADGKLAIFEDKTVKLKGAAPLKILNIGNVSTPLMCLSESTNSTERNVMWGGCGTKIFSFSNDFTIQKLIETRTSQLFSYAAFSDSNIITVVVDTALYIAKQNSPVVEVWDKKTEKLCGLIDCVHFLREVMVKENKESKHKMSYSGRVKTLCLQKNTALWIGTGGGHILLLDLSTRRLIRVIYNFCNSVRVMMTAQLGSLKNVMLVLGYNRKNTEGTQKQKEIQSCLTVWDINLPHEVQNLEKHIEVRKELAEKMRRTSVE
MSK1/RPS6KA5, sequence (O75582 whole entry): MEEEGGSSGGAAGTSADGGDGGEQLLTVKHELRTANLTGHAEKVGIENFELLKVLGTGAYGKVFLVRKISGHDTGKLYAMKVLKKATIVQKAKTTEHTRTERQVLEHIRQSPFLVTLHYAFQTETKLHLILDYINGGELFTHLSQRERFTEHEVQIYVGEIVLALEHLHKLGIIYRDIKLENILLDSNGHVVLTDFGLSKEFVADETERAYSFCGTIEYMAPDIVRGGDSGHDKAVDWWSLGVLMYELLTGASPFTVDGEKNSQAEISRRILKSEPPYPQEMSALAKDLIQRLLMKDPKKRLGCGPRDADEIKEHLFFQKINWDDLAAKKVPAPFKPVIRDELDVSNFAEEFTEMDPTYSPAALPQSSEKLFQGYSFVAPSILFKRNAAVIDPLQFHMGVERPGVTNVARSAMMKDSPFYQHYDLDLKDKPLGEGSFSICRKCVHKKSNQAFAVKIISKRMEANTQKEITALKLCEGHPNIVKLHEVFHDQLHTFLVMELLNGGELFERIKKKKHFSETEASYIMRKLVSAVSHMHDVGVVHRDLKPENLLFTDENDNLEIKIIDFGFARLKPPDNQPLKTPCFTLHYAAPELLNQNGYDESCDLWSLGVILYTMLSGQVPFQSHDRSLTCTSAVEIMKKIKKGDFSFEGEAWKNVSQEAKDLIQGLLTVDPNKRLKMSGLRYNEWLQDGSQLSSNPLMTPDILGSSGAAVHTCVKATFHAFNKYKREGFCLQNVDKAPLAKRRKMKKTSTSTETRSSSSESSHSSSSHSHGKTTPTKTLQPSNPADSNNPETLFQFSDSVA
MEK3, sequence (P46734 whole entry, species assumed): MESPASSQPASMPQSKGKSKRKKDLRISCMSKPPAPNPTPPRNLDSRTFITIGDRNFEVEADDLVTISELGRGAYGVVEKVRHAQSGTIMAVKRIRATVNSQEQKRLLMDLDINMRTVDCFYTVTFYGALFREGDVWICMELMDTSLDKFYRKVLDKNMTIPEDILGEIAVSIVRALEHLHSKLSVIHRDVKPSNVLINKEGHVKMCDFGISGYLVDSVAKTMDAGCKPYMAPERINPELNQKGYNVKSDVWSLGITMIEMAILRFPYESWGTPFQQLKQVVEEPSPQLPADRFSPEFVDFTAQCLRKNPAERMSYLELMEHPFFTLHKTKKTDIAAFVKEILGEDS

`Cc1cn(-c2cc(C(=O)Nc3ccc(C)c(N4Cc5cnc(NC6CC6)nc5C5(CC5)C4=O)c3)cc(C(F)(F)F)c2)cn1` [Compound 8, N-(3-(2'-(cyclopropylamino)-7'-oxo-5'H-spiro[cyclopropane-1,8'-pyrido[4,3-d]pyrimidine]-6'(7'H)-yl)-4-methylphenyl)-3-(4-methyl-1H-imidazol-1-yl)-5-(trifluoromethyl)benzamide] was tested, and the remaining activity at 1 µM [1] was greater than 40%, the remaining activity at 1 µM [2] was greater than 40% and the remaining activity at 1 µM [3] was greater than 40%. For the same molecule, the remaining activity at 1 µM [4] was no more than 40%, the remaining activity at 1 µM [5] was greater than 40% and the remaining activity at 1 µM [6] was greater than 40%. It also gave a remaining activity at 1 µM [7] greater than 40%, a remaining activity at 1 µM [8] greater than 40% and a remaining activity at 1 µM [9] greater than 40%. The remaining activity at 1 µM [10] was greater than 40%, the remaining activity at 1 µM [11] was greater than 40% and the remaining activity at 1 µM [12] was greater than 40%. The remaining activity at 1 µM [13] was no more than 40%, the remaining activity at 1 µM [14] was greater than 40% and the remaining activity at 1 µM [15] was greater than 40%. For the same molecule, the remaining activity at 1 µM [16] was greater than 40%, the remaining activity at 1 µM [17] was greater than 40% and the remaining activity at 1 µM [18] was greater than 40%. For the same molecule, the remaining activity at 1 µM [19] was greater than 40%, the remaining activity at 1 µM [20] was greater than 40% and the remaining activity at 1 µM [21] was no more than 40%. The remaining activity at 1 µM [22] was greater than 40%, the remaining activity at 1 µM [23] was greater than 40% and the remaining activity at 1 µM [24] was greater than 40%. It also gave a remaining activity at 1 µM [25] of no more than 40%, a remaining activity at 1 µM ([26]; C-SRC) of no more than 40% and a remaining activity at 1 µM [27] greater than 40%. The remaining activity at 1 µM [28] was greater than 40%, the remaining activity at 1 µM [29] was greater than 40% and the remaining activity at 1 µM [30] was no more than 40%. It also gave a remaining activity at 1 µM [31] greater than 40% and a remaining activity at 1 µM [32] greater than 40%.

Work on `Cc1ccc(Nc2ncc3c(n2)C2(CC2)C(=O)N(c2cc(NC(=O)c4cccc(C(F)(F)F)c4)ccc2C)C3)cn1` [Compound 51, N-(4-methyl-3-(2'-((6-methylpyridin-3-yl)amino)-7'-oxo-5'H-spiro[cyclopropane-1,8'-pyrido[4,3-d]pyrimidine]-6'(7'H)-yl)phenyl)-3-(trifluoromethyl)benzamide] yielded a remaining activity at 1 µM [1] greater than 40%, a remaining activity at 1 µM [2] greater than 40% and a remaining activity at 1 µM [3] greater than 40%. It also gave a remaining activity at 1 µM [4] of no more than 40%, a remaining activity at 1 µM [5] greater than 40% and a remaining activity at 1 µM [6] greater than 40%. It also gave a remaining activity at 1 µM [7] of no more than 40%, a remaining activity at 1 µM [8] greater than 40% and a remaining activity at 1 µM [9] greater than 40%. It also gave a remaining activity at 1 µM [10] greater than 40%, a remaining activity at 1 µM [11] greater than 40% and a remaining activity at 1 µM [12] greater than 40%. The remaining activity at 1 µM [13] was no more than 40%, the remaining activity at 1 µM [14] was greater than 40% and the remaining activity at 1 µM [15] was greater than 40%. The remaining activity at 1 µM [16] was no more than 40%, the remaining activity at 1 µM [17] was greater than 40% and the remaining activity at 1 µM [18] was greater than 40%. The remaining activity at 1 µM [19] was greater than 40%, the remaining activity at 1 µM [20] was greater than 40% and the remaining activity at 1 µM [21] was no more than 40%. The remaining activity at 1 µM [22] was greater than 40%, the remaining activity at 1 µM [23] was greater than 40% and the remaining activity at 1 µM [24] was greater than 40%. The remaining activity at 1 µM [25] was no more than 40%, the remaining activity at 1 µM ([26]; c-Src) was no more than 40% and the remaining activity at 1 µM [27] was greater than 40%. It also gave a remaining activity at 1 µM [28] greater than 40%, a remaining activity at 1 µM [29] greater than 40% and a remaining activity at 1 µM [30] of no more than 40%. For the same molecule, the remaining activity at 1 µM [31] was greater than 40% and the remaining activity at 1 µM [32] was greater than 40%.
